A short description of data set [1]: Solubility in EtOH (TEAC conditions). The following applies: under TEAC experimental conditions. The class given is physicochemical.
In another data set the target is T1, Aβ40 (Homo sapiens, UniProt P05067).
T1 construct: Ab40 ([…]-; purchased Peptide Institute, Inc. (Osaka, Japan)
Kind of data set: ITC binding of 6 with Aβ40. How it is done:
Distinct reactivities of 6 with metal-free Aβ and metal–Aβ were supported by various biophysical approaches. […] In the absence of Aβ, an increase or decrease in the absorption of the peaks at ca. 265, 300, 340, and 410 nm was monitored for 24 h (Fig. S18 ^†), which could be resulted from the oxidation of 6 in the presence of O2.[69] These spectral changes were accelerated upon incubation with Aβ, indicative of its impact on the oxidative modification of 6. Such transformation of 6 was also indicated in the presence of Cu(II) or Zn(II) with and without Aβ. To probe the interaction of 6 with Aβ, their binding properties were analyzed by isothermal titration calorimetry (ITC). For the association between 6 and Aβ, we recorded the heat change upon constant titration of the flavonoid into the solution of Aβ, where the dilution heat was also measured to avoid the heat change induced by its addition into the buffered solution. […] Thus, 6 can bind to Aβ with a micromolar binding affinity. […]
ITC. The solutions of Ab and 6 were subjected to degassing under vacuum for 3 min prior to loading into the instrument. […] […] The initial delay and the reference power were 60 s and 10 µcal/s, respectively. Dilution heat of 6 only was also measured under the same experimental conditions.
(§1) The ITC thermogram and binding isotherm were shown after the subtraction of the dilution heat.
The binding isotherm after baseline correction was fitted to the one-set-of-sites binding model using the MicroCal Origin software (version 7.0). […]

Data set [2] concerns human neuroblastoma 5Y cells. Kind of data set: MTT cytotoxicity assay. The class given is cell-based. The note with it: at up to 100 μM; 24 h; 5Y cells; relative to DMSO. How it is done: Flavonoid 6 was synthesized following previously reported procedures with modifications.[66–68] […] It should be noted that cell viability was calculated, relative to that of the cells containing an equivalent amount of DMSO.
(§2) Cell viability was determined by the MTT assay [MTT = 3-(4,5-dimethylthiazol-2-yl)-2,5-diphenyltetrazolium bromide]. Cells were seeded in a 96-well plate (15,000 cells/100 µL) and treated with the samples {[flavonoid] = 5, 10, 25, 50, and 100 µM (1% v/v DMSO)}. After 24 h incubation, 5Y cells were washed with phosphate buffered saline (PBS; GIBCO). MTT [5 mg/mL in PBS (pH 7.4, GIBCO); 25 µL] was added to each well and the plate was incubated for 4 h at 37 °C. The formazan produced by cells was solubilized using an acidic solution of DMF (pH 4.5, 50% v/v, aq) and sodium dodecyl sulfate (SDS; 20% w/v) overnight at room temperature in the dark. Absorbance was measured at 600 nm by a microplate reader (Molecular Devices). Cell viability, relative to that of the cells containing an equivalent amount of DMSO, was calculated.
(§3) The measurements were conducted in triplicate. […]

The target in a further data set is T2, 15N-labeled Aβ42 (Homo sapiens, UniProt P05067).
T2 construct: the human Ab42 peptide was artificially constructed using codons; extra Met residue (start codon) before Asp1 (N); made in house; host or cells: E. coli BL21 (DE3) pLysS, pAED4 vector
Kind of data set: 2D SOFAST-HMQC NMR with 15N-labeled Aβ42. The class given is binding. The following applies: 15N-Aβ42 33 μM; 6 100 μM; 10 °C. How it is done: as §2, §3
loading into the instrument. […]
The initial delay and the reference power were 60 s and 10 µcal/s, […]
as §1
The binding isotherm after baseline correction was fitted to the one-set-of-sites binding model using the MicroCal Origin software (version 7.0).
Expression and Purification of 15N-labeled Recombinant Ab42. […]

The target of the next data set is T3, 15N-labeled Aβ40 (Homo sapiens, UniProt P05067).
T3 construct: AEDVG SNKGA IIGLM VGGVV; purchased rPeptide (Georgia, GA, USA)
Kind of data set: 2D SOFAST-HMQC NMR with 15N-labeled Aβ40. The class given is binding. The following applies: 15N-Aβ40 33 μM; 6 100 μM; 10 °C.

Each structure is given as a SMILES string. pKd: −log10 of the molar value.

T1 sequence (P05067 672-711 limits assumed): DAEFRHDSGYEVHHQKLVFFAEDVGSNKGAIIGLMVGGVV
T3 sequence (P05067 672-711 limits assumed): as above
T2 sequence (P05067 671-713 limits assumed): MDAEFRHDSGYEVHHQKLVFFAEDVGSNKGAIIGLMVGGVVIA
Description for 15N-labeled Aβ40: 2D 1H−15N SOFAST-HMQC NMR Experiments. […] To remove possible preformed aggregates, the lyophilized peptide was then redissolved in diluted NaOH (pH 10) and passed through a filter (0.22 µm). On the other hand, the stock solution of 15N-labeled Ab42 based on the previous report.27 Briefly, uniformly 15N-labeled Ab42 was solubilized in diluted NaOH (pH 10) at a concentration of ~200 µM. The undissolved precipitates of Ab42 were removed by centrifugation at 40,000 rpm for 1 h. The solution of 15N-labeled Ab (33 µM) was prepared with and without 6 (100 µM; 1% v/v DMSO) in 20 mM HEPES, pH 7.4 (10% v/v D2O) for NMR experiments. All spectra were acquired with 180 scans at 10 °C. Dimensions of the spectra were 1,024 (1H) ´ 128 (15N) points. Experimental data were processed with NMRpipe29 and Sparky 3.115.30 The 1H and 15N assignments of 15N-labeled Ab were determined based on the previous results.21,31 The chemical shift perturbation was calculated following the equation (eq 4).32 Note that DdH and DdN represent the alterations in the chemical shifts of 1H and 15N of 15N-labeled Ab, respectively.

Regarding `O=c1cc(-c2ccccc2)oc2cc(O)cc(O)c12` [compound 1, chrysin], the “solubility in ethanol (EtOH)” value in data set [1] was “limited solubility”.
Regarding `O=c1c(-c2ccc(O)c(O)c2)coc2cc(O)c(O)c(O)c12` [compound 6, 3-(3,4-dihydroxyphenyl)-5,6,7-trihydroxy-4H-chromen-4-one], the pKd on Aβ40 (one-set-of-sites model, 10 °C, read-out: Binding affinity) was about 4.69. For the same compound, at Aβ40 (pH 7.4, 10 °C), the TΔS is recorded as 5.4 (±0.7) kcal mol^−1, the ΔG was −6.0 (±0.5) kcal mol^−1 and the ΔH is recorded as −0.6 (±0.5) kcal mol^−1. Also, in data set [2], the cell survival was over 90%. Also, the “decrease of overall NMR peak intensity” value at 15N-labeled Aβ42 is “ca. 20%”. Further, at 15N-labeled Aβ40, the “decrease of overall NMR peak intensity” value was “ca. 10%”.

The record behind these values is publication PMC10498667 (Chemical Science, 2023).
